Laboratory results from patent publication US20080221132A1, “Multi-Functional Small Molecules as Anti-Proliferative Agents” (priority 2006, published 2008).

Columns and labels:
[1] = system: Colon_HCT116 (HCT116, colon cancer); assay: Cell proliferation assay (ATPlite), HCT116; assay type: cell-based; settings: Homo sapiens, HCT-116; TABLE C; 72 hours, 0.5% fetal bovine serum, ATP content; read-out: IC50 grading, Colon_HCT116
Experimental: (§1) A representative number of compounds were assayed against several different cell lines using the cell proliferation assay:
(§2) Cell Proliferation Assay:
Cancer cell lines were plated at 5,000 to 10,000 per well in 96-well flatted bottomed plates with various concentration of compounds. […] Growth inhibition was accessed by adenosine triphosphate (ATP) content assay using Perkin Elmer ATPlite kit. ATPlite is an ATP monitoring system based on firefly luciferase. Briefly, 25 μl of mammalian cell lysis solution was added to 50 μl of phenol red-free culture medium per well to lyse the cells and stabilize the ATP. 25 μl of substrate solution was then added to the well and subsequently the luminescence was measured.

Pancreas_BxPC3 = assay: Cell proliferation assay (ATPlite), BxPC3; assay type: cell-based; settings: Homo sapiens, BXPC-3; TABLE C; 72 hours, 0.5% fetal bovine serum, ATP content; read-out: IC50 grading, Pancreas_BxPC3
Experimental: as §1, §2
(§3) Cancer cell lines were plated at 5,000 to 10,000 per well in 96-well flatted bottomed plates with various concentration of compounds. The cells were incubated with compounds for 72 hours in the presence of 0.5% of fetal bovine serum. Growth inhibition was accessed by adenosine triphosphate (ATP) content assay using Perkin Elmer ATPlite kit. ATPlite is an ATP monitoring system based on firefly luciferase. Briefly, 25 μl of mammalian cell lysis solution was added to 50 μl of phenol red-free culture medium per well to lyse the cells and stabilize the ATP. 25 μl of substrate solution was then added to the well and subsequently the luminescence was measured.

Pancreas_CFPAC = assay: Cell proliferation assay (ATPlite), CFPAC; assay type: cell-based; settings: TABLE C; 72 hours, 0.5% fetal bovine serum, ATP content; read-out: IC50 grading, Pancreas_CFPAC
Experimental: as §1, §2, §3

Pancreas_HPAC = assay: Cell proliferation assay (ATPlite), HPAC; assay type: cell-based; settings: Homo sapiens, TABLE C, 72 hours, 0.5% fetal bovine serum, ATP content, read-out: IC50 grading, Pancreas_HPAC
Experimental: as §1, §2, §3

Pancreas_MiaPaCa2 = assay: Cell proliferation assay (ATPlite), MiaPaCa2; assay type: cell-based; settings: Homo sapiens, MIA PaCa-2; TABLE C; 72 hours, 0.5% fetal bovine serum, ATP content; read-out: IC50 grading, Pancreas_MiaPaCa2
Experimental: as §1, §2, §3

Pancreas_PANC1 = assay: Cell proliferation assay (ATPlite), PANC1; assay type: cell-based; settings: Homo sapiens, PANC-1; TABLE C; 72 hours, 0.5% fetal bovine serum, ATP content; read-out: IC50 grading, Pancreas_PANC1
Experimental: as §1, §2, §3

[2] = system: HDAC (HeLa nuclear extract); assay: HDAC fluorimetric assay kit (AK-500, Biomol), HeLa nuclear extract; assay type: biochemical; settings: TABLE 1-B, Section 1 compounds; read-out: HDAC (IC50 grading)
Experimental: (§4) HDAC inhibitors were screened using an HDAC fluorimetric assay kit (AK-500, Biomol, Plymouth Meeting, Pa.). […] Each assay was setup as follows: Defrosted all kit components and kept on ice until use. […] Prepared dilutions of Trichostatin A (TSA, positive control) and tested compounds in assay buffer (5× of final concentration). Diluted Fluor de Lys™ Substrate in assay buffer to 100 uM (50 fold=2× final). Diluted Fluor de Lys™ developer concentrate 20-fold (e.g. 50 μl plus 950 μl Assay Buffer) in cold assay buffer. Second, diluted the 0.2 mM Trichostatin A 100-fold in the 1× Developer (e.g. 10 μl in 1 ml; final Trichostatin A concentration in the 1× Developer=2 μM; final concentration after addition to HDAC/Substrate reaction=1 μM). Added Assay buffer, diluted trichostatin A or test inhibitor to appropriate wells of the microtiter plate. Added diluted HeLa extract or other HDAC sample to all wells except for negative controls.
HDAC inhibitors were screened using an HDAC fluorimetric assay kit (AK-500, Biomol, Plymouth Meeting, Pa.).
Each assay was setup as follows: Defrosted all kit components and kept on ice until use. […] Prepared dilutions of Trichostatin A (TSA, positive control) and tested compounds in assay buffer (5× of final concentration). Diluted Fluor de Lys™ Substrate in assay buffer to 100 uM (50 fold=2× final). Diluted Fluor de Lys™ developer concentrate 20-fold (e.g. 50 μl plus 950 μl Assay Buffer) in cold assay buffer. Second, diluted the 0.2 mM Trichostatin A 100-fold in the 1× Developer (e.g. 10 μl in 1 ml; final Trichostatin A concentration in the 1× Developer=2 μM; final concentration after addition to HDAC/Substrate reaction=1 μM). Added Assay buffer, diluted trichostatin A or test inhibitor to appropriate wells of the microtiter plate. Added diluted HeLa extract or other HDAC sample to all wells except for negative controls.
HDAC inhibitors is screened using an HDAC fluorimetric assay kit (AK-500, Biomol, Plymouth Meeting, Pa.).
Each assay is setup as follows: Defrost all kit components and kept on ice until use. […] Prepare dilutions of Trichostatin A (TSA, positive control) and tested compounds in assay buffer (5× of final concentration). Dilute Fluor de Lys™ Substrate in assay buffer to 100 uM (50 fold=2× final). Dilute Fluor de Lys™ developer concentrate 20-fold (e.g. 50 μl plus 950 μl Assay Buffer) in cold assay buffer. Second, dilute the 0.2 mM Trichostatin A 100-fold in the 1× Developer (e.g. 10 μl in 1 ml; final Trichostatin A concentration in the 1× Developer=2 μM; final concentration after addition to HDAC/Substrate reaction=1 μM). Add Assay buffer, dilute trichostatin A or test inhibitor to appropriate wells of the microtiter plate. Add diluted HeLa extract or other HDAC sample to all wells except for negative controls.
as §4, with “assay buffer)” for “Assay Buffer)”, “assay” for “Assay”
CDK2/cyclinE: 0.5 nM CDK2/cyclinE and 5 μM Histon H1 are in the reaction buffer plus 1 μM ATP and 1% DMSO final. Incubate for 2 hours at room temperature. […] Incubate for 2 hours at room temperature.

Compound	melting point	IC50 (Pancreas_BxPC3) [nM]	IC50 (Pancreas_CFPAC) [nM]	IC50 (Pancreas_HPAC) [nM]	IC50 (Pancreas_MiaPaCa2) [nM]	IC50 (Pancreas_PANC1) [nM]	IC50 [2] [nM]	other results
Nc1ncnc2c1nc(Sc1cc3c(cc1Br)OCO3)n2CC(=O)NO [Compound 1, 2-(6-amino-8-(6-bromobenzo[d][1,3]dioxol-5-ylthio)-9H-purin-9-yl)-N-hydroxyacetamide]	230 °C (dec.)	–	–	–	–	–	–	–
CC(C)(C)c1cnc(CSc2cnc(NC(=O)C3CCN(CCCC(=O)NO)CC3)s2)o1 [Compound 1, N-(5-((5-tert-butyloxazol-2-yl)methylthio)thiazol-2-yl)-1-(4-(hydroxyamino)-4-oxobutyl)piperidine-4-carboxamide]	176 to 180 °C	–	–	–	–	–	–	–
CC(C)(C)c1cnc(CSc2cnc(NC(=O)C3CCN(CCCCCC(=O)NO)CC3)s2)o1 [Compound 3, N-(5-((5-tert-butyloxazol-2-yl)methylthio)thiazol-2-yl)-1-(6-(hydroxyamino)-6-oxohexyl)piperidine-4-carboxamide]	127 to 130 °C	–	–	–	–	–	–	–
Cc1[nH]c(/C=C2\C(=O)Nc3ccc(F)cc32)c(C)c1C(=O)NCCCCCC(=O)NO [Compound 4, N-(5-(hydroxycarbamoyl)pentyl)5-((Z)-(5-fluoro-2-oxoindolin-3-ylidene)methyl)-2,4-dimethyl-1H-pyrrole-3-carboxamide]	209.7 °C (dec.)	–	–	–	–	–	–	–
CN(C)CC[C@H](CSc1ccccc1)Nc1ccc(S(=O)(=O)NC(=O)c2ccc(N3CCN(Cc4ccccc4-c4ccc(Cl)cc4)CC3)c(NC(=O)CCCCC(=O)NO)c2)cc1[N+](=O)[O-] [Compound 8, (R)—N^1-(2-(4-((4′-Chlorobiphenyl-2-yl)methyl)piperazin-1-yl)-5-(4-(4-(dimethylamino)-1-(phenylthio)butan-2-ylamino)-3-nitrophenylsulfonylcarbamoyl)phenyl)-N^6-hydroxyadipamide]	150 °C	–	–	–	–	–	–	–
C[C@@H](Nc1ncnc2[nH]c(-c3ccc(OCC(=O)NO)cc3)cc12)c1ccccc1 [Compound 17, (R)—N-hydroxy-2-(4-(4-(1-phenylethylamino)-7H-pyrrolo[2,3-d]pyrimidin-6-yl)phenoxy)acetamide]	116.8 to 126.8 °C	–	–	–	–	–	–	–
O=C(CCCCCCOc1ccc2ncnc(Nc3ccc(F)c(Cl)c3)c2c1)NO [Compound 18]	–	100 to 1000	100 to 1000	1000 to 10000	100 to 1000	100 to 1000	–	IC50 [1]: 100 to 1000 nM
Cc1nc(NCCCCCCC(=O)NO)cc(Nc2ncc(C(=O)Nc3c(C)cccc3Cl)s2)n1 [Compound 24, N-(2-chloro-6-methylphenyl)-2-(6-(7-(hydroxyamino)-7-oxoheptylamino)-2-methylpyrimidin-4-ylamino)thiazole-5-carboxamide]	150.7 °C (dec.)	–	–	–	–	–	–	–
Nc1ccc(C(=O)NCCNC(=O)CCCC(=O)NO)cc1 [Compound 29, N-hydroxy-4-(2-(4-aminobenzamido)-ethylcarbamoyl)butanamide]	158.9 to 159.8 °C	–	–	–	–	–	–	–
COc1cc2ncnc(Nc3ccc(F)c(Cl)c3)c2cc1NC(=O)CCCCCCC(=O)NO [Compound 40]	–	1000 to 10000	1000 to 10000	1000 to 10000	1000 to 10000	1000 to 10000	–	–
COc1cc2ncnc(Nc3ccc(F)c(Cl)c3)c2cc1OCCOc1ccc(/C=C/C(=O)NO)cc1 [Compound 66]	–	1000 to 10000	> 10000	1000 to 10000	1000 to 10000	1000 to 10000	–	–
COCCOc1cc2ncnc(Nc3ccc(F)c(Cl)c3)c2cc1NC(=O)CCCCCCC(=O)NO [Compound 70, N^1-(4-(3-chloro-4-fluorophenylamino)-7-(2-methoxyethoxy)quinazolin-6-yl)-N^8-hydroxyoctanediamide]	–	1000 to 10000	1000 to 10000	> 10000	1000 to 10000	1000 to 10000	–	–
COc1cc2ncnc(N[C@H](C)c3ccccc3)c2cc1OCCCCCC(=O)NO [Compound 77, (R)—N-hydroxy-6-(7-methoxy-4-(1-phenylethylamino)quinazolin-6-yloxy)-hexanamide]	–	1000 to 10000	1000 to 10000	> 10000	100 to 1000	> 10000	–	–
COc1cc2ncnc(N[C@H](C)c3ccccc3)c2cc1OCCCCCCC(=O)NO [Compound 79, (R)—N-hydroxy-7-(7-methoxy-4-(1-phenylethylamino)quinazolin-6-yloxy)heptanamide]	–	1000 to 10000	1000 to 10000	> 10000	1000 to 10000	1000 to 10000	–	–
COc1cc2ncnc(NCc3ccccc3)c2cc1OCCCCCCC(=O)NO [Compound 85, 7-(4-(Benzylamino)-7-methoxyquinazolin-6-yloxy)-N-hydroxyheptanamide]	–	100 to 1000	1000 to 10000	1000 to 10000	1000 to 10000	1000 to 10000	–	IC50 [1]: 100 to 1000 nM
COc1cc2ncnc(Nc3ccc(F)c(Cl)c3)c2cc1NC(=O)Nc1ccc(C(=O)NO)cc1 [Compound 94]	–	–	–	–	–	–	> 10000	–
COc1cc2ncnc(Nc3ccc(F)c(Cl)c3)c2cc1OCCCCCC(C(=O)NO)C(C)C (stereo not shown) [Compound 112]	–	–	–	–	–	–	> 10000	–
COc1cc2ncnc(Nc3ccc(F)c(Cl)c3)c2cc1OCCCOc1ccc(C(=O)NO)cc1 [Compound 202]	–	–	–	–	–	–	100 to 1000	–
COc1cc2ncnc(Nc3ccc(F)c(Cl)c3)c2cc1OCCCCOc1ccc(C(=O)NO)cc1 [Compound 203]	–	–	–	–	–	–	100 to 1000	–
COc1cc2ncnc(Nc3ccc(F)c(Cl)c3)c2cc1Oc1ccc(C#CCCC(=O)NO)cc1 [Compound 204]	–	–	–	–	–	–	1000 to 10000	–
C#Cc1cccc(Nc2ncnc3cc(O)c(OCCCCCCC(=O)NO)cc23)c1 [Compound 207]	–	–	–	–	–	–	< 100	–
C#Cc1cc(Nc2ncnc3cc(O)c(OCCCCCCC(=O)NO)cc23)ccc1O [Compound 208]	–	–	–	–	–	–	< 100	–
